Patent US20170058288A1, “OSNF-YA7 GENE FOR INCREASING DROUGHT STRESS RESISTANCE OF PLANT AND USE THEREOF” (SNU R&DB FOUNDATION, priority 2014, published 2017)

Tests used:
OsNF-YA7 = OsNF-YA7 gene expression in response to ABA treatment (qRT-PCR); type: in vivo, rice (Oryza sativa); conditions: short-term treatment (24 hours) with 10 and 100 μM ABA, NT rice plant, compared to untreated control group
Experimental: (§1) To analyze expression patterns of OsNF-YA4 and OsNF-YA7 gene in response to abiotic stress, non-transgenic rice plants (NT plants; breed—“Nakdong”) were grown in soil for 4 week in green house. The whole plant of a 4-week old non-transgenic plant was air-dried for 3 hrs for drought stress treatment. For the treatment of salt stress, whole plants were transferred to a solution containing 200 mM of NaCl and kept for 24 hours. For the treatment of low temperature stress, whole plants were transferred to a 4° C. low temperature chamber and kept for 24 hrs. For the analysis of OsNF-YA4 and OsNF-YA7 gene expression pattern in response to ABA, NT plant were grown in MS media for 2 week in growth chamber. For the short-term treatment with ABA, the whole plants were transferred to a solution containing 10 or 100 μM ABA and treated with the solution for 24 hours. For the long-term treatment with ABA, NT plant seeds were planted and grown on MS media supplemented with 0, 0.5, 1 or 3 μM of ABA for 2 weeks.
(§2) Leaf and root tissues of a plant which has been treated with either abiotic stress or absicic acid were collected and frozen. […] To analyze the gene expression level, quantitative PCR was carried out by using Mx3000p real-time PCR machine and Platinum® SYBR® Green qPCR SuperMix-UDG system (Invitrogen, USA). […]

OsNF-YA4 = OsNF-YA4 gene expression in response to ABA treatment (qRT-PCR); type: in vivo, rice (Oryza sativa); conditions: short-term treatment (24 hours) with 10 and 100 μM ABA, NT rice plant, compared to untreated control group
Experimental: as §1, §2

CC1=CC(=O)CC(C)(C)[C@@]1(O)/C=C/C(C)=C\C(=O)O [ABA, Abscisic acid]
decrease in OsNF-YA7 expression level (OsNF-YA7): approximately 30% | increase in OsNF-YA4 expression level (OsNF-YA4): 4 fold
